In patent publication US5212202A, “Therapeutic cholesterol gallstone dissolution method” (priority 1992, dated 1993):
Read-outs that look alike come from different tables or passages of the source.

Experiments:
[1] = in words; cited from earlier work
[2] = in words; cited from earlier work; remark: listed apart in the source
[3] = cited from earlier work
[4] = in vitro dissolution of fresh human cholesterol gallstones in a model gallbladder at high flow rate (Table I); conditions: for Dissolution Rate / Dissolution Time: high flow rate; for Dissolution Rate: stone taken as 90% by weight cholesterol; for dissolution of cholesterol gallstones compared with MTBE: in words; for Dissolution Time: total dissolution, one stone of 132-175 mg per solvent
Experimental: Their efficacy and the techniques of the present invention may be seen from the following data. In the tests described in Table I below, fresh human faceted cholesterol gallstones (kept in distilled water) were dissolved in vitro and the times were recorded for the total dissolution, using a model gallbladder at a high flow rate achieved by a metering pump. "High flow rate" as used herein will mean rates of flow in the range which can be anticipated to result in fluid turbulence for the solvent in the region of the biliary tract surrounding the calculi (gallstones). While "high" rates will vary according to solvent type and viscosity and with individual patients, it will be expected that appropriate flow rates will be at least about 20 ml/min, preferably at least about 100 ml/min, and more preferably at least about 150 ml/min. For comparison purposes a parallel test with MTBE is also shown.

[5] = in vitro dissolution of matched cholesterol gallstones from cholecystectomy patients, 30 ml polyethylene bag model gallbladder, 180 ml/min (Table II); parameters: species or system human; conditions: five stones per set; for Mean Time (complete dissolution): mean stone weight 79-340 mg, 150 ml solvent
[6] = treatment of a human patient with gallstones by solvent perfusion; assay type: in vivo
From the text: Another aspect of the invention is the in vivo dissolution of gallstones using the C5 -C6 ester solvents provided herein as the solvent in a high flow rate pumping system, in particular a continuous pumping system controlled by gallbladder pressure feedback and employing a delivery system consisting of a catheter, a continuous flow pumping system, a controller and a tubing set; see aforesaid U.S. patent application No. 07/482,194, filed Feb. 20, 1990, to S. Zakko, incorporated herein by reference.
Such a pumping system, in combination with the low viscosity solvent provided herein, has the capability of emptying the gallbladder many times faster than the rate of normal gallbladder contraction, to prevent solvent from emptying into the intestine should such a gallbladder contraction occur during perfusion. […]
Further, should the pressure remain above (as may occur with the beginning of a gallbladder contraction) or below the upper and lower pressure limits in excess of empirically determined delays, or above or below the upper and lower pressure alarms, for the associated delays, the controller causes the system to enter into an alarm mode in which both pumps operate in the aspiration direction at maximum flow rate to remove the low viscosity solvent.

[7] = perfusion of the gallbladder of an anesthetized pig, solvent level in central venous blood by gas chromatography
[8] = cited from earlier work; remark: listed apart in the source

## CCCCCCCC(=O)OCC(O)CO (stereo not shown) [Monooctanoin, monooctanoin]
[1]
  viscosity: relatively high viscosity
[2]
  gallstone dissolution speed: dissolves gallstones very slowly

## CCOCC [diethyl ether, reference compound]
[3]; in words
  Boiling point relative to body temperature: below body temperature

## CCOC(=O)C(C)C [ethyl isobutyrate]
[4]
  Dissolution Rate: 8 mg/min
  dissolution of cholesterol gallstones compared with MTBE: rate generally comparable to that of MTBE
  Dissolution Time: 15 min
[5]
  Overall Rate (dissolution): 4.55 mg/min
  Mean Time (complete dissolution): 33 min
[3]; Table I
  Boiling Point: 112 °C

## CCOC(=O)CC [ethyl propionate]
[6]; human patient
  cholesterol concentration in the solvent during the procedure, versus previous procedures using MTBE: higher than concentrations observed during previous procedures conducted using MTBE
[6]; one human patient
  treatment of a human patient to eliminate cholesterol gallstones: successful treatment
[4]
  Dissolution Rate: 13 mg/min
  dissolution of cholesterol gallstones compared with MTBE: rate generally comparable to that of MTBE
  Dissolution Time: 10 min
[7]; before, 1 h and 2 h of perfusion, 30 and 60 min after
  blood level of solvent throughout the procedure: below the level of detectability
[5]
  Overall Rate (dissolution): 12.22 mg/min
  Mean Time (complete dissolution): 14 min
[3]; Table I
  Boiling Point: 99 °C

## CC(=O)OC(C)C [isopropyl acetate]
[4]
  Dissolution Rate: 9 mg/min
  dissolution of cholesterol gallstones compared with MTBE: rate generally comparable to that of MTBE
  Dissolution Time: 14 min
[5]
  Overall Rate (dissolution): 5.48 mg/min
  Mean Time (complete dissolution): 26 min
[3]; Table I
  Boiling Point: 89 °C

## COC(C)(C)C [methyl t-butyl ether]
[4]
  Dissolution Rate: 20 mg/min
  Dissolution Time: 8 min
[8]; believed caused by increased blood levels of MTBE
  side effects in patients: nausea and vomiting
[8]; escape from gallbladder into small intestine
  systemic toxicity, pain and intestinal damage on escape into the small intestine: signs of systemic toxicity (sedation), pain and by endoscopy, damage to the epithelium of the small intestine
[8]; in vivo
  effect of entry into the blood stream: hemolysis
[8]; reversible
  renal failure: one
[7]; 10 ml, 2 h gallbladder perfusion, central vein
  blood level of solvent during perfusion: 0.01-0.1 μl/ml
[7]; read-out: blood level of solvent during perfusion, 10 ml, 2 h gallbladder perfusion, central vein
  concentration: 84 to 840 µM
[7]; thirty and sixty minutes following perfusion
  blood level of solvent after perfusion: declined after perfusion
[5]
  Overall Rate (dissolution): 7.69 mg/min
  Mean Time (complete dissolution): 19 min
[3]; Table I
  Boiling Point: 55 °C
[3]
  Boiling Point: 55 °C

## CCCOC(C)=O [n-propyl acetate]
[4]
  Dissolution Rate: 14 mg/min
  dissolution of cholesterol gallstones compared with MTBE: rate generally comparable to that of MTBE
  Dissolution Time: 10 min
[5]
  Overall Rate (dissolution): 4.45 mg/min
  Mean Time (complete dissolution): 35 min
[3]; Table I
  Boiling Point: 102 °C
